# “Also recorded” adds a separate entry of the source. Read-outs that look alike come from different tables or passages of the source.
# Experiments:
# [1] = cited from earlier work
# [2] = also after multiple dosing; cited from earlier work
# [3] = pH 7.4
# Method: In vitro release studies: In vitro release of nanoparticle-encapsulated drug was determined under sink conditions. The term “sink conditions” refers to release conditions in which the volume of the buffer used is sufficient to dissolve all of the drug present in the delivery system. Such conditions are used to assure that the amount of drug released is not limited by the degree of solubility in the buffer or solvent used. Nanoparticles (˜5 mg) were dispersed in 0.5 ml of phosphate-buffered saline (PBS, pH 7.4, 0.15M) and suspended in DispoDialyzer® (10 kDa MWCO, Pierce) dialysis tubes. These were then placed in a 15-ml centrifuge tube containing 10 ml of PBS. The whole assembly was shaken at 100 rpm and 37.0±0.5° C. in an orbital shaker (Brunswick Scientific, C24 incubator shaker, NJ). […] Drug concentration in the release samples was determined as in drug loading determinations. Stability of different drugs under in vitro release conditions was determined and the drug release profile was corrected for degradation, if any.
# Initially, the stability of these drugs under the release conditions (PBS, pH 7.4 and 37° C.) were investigated.
# [4] = tested on: JC tumors (doxorubicin-resistant mammary adenocarcinoma); test: Tumor growth after combination PDT and chemotherapy in drug-resistant tumor; type: in vivo, female Balb/c mice; conditions: single i.v. dose, 4 mg/kg doxorubicin
# Text: FIG. 16. Nanoparticle-mediated combination PDT and chemotherapy overcame tumor drug resistance in vivo. […] About twenty four hours after treatment administration, tumors were exposed to light of 665 nm wavelength (50 J/cm^2). Animals were then monitored for tumor growth. The results are shown as percent increase in tumor volume as a function of time after treatment (days), with the various treatment protocols.
# Nanoparticle-mediated combination PDT-chemotherapy inhibited drug-resistant tumor growth. The in vivo efficacy of nanoparticle-mediated combination chemo- and photodynamic therapy was studied in a mouse model of drug-resistant tumor. Drug-resistant JC tumors (doxorubicin-resistant mammary adenocarcinoma) grown subcutaneously in female Balb/c mice were used in these experiments. Mice were administered a single i.v. dose of the different treatments. […] About 24 hrs after treatment administration, tumors were exposed to light of 665 nm wavelength (50 J/cm^2). Animals were then monitored for tumor growth.
# NCI-ADR/RES cells [5] = test: Cytotoxicity in drug-resistant cells, MTS assay (Example 5); type: cell-based
# Method: (§1) For cytotoxicity studies, NCI-ADR/RES or MCF-7 cells were seeded in 96-well plates at a seeding density of 5000-10000 cells per well per 0.1 mL of medium and allowed to attach overnight. […] Untreated cells and empty nanoparticles were used as controls. […] Cytotoxicity was determined over a period of 10 days using a commercially available MTS assay (Promega). Results were analyzed by using an ANOVA. Differences were considered significant at P<0.05.
# MCF-7 cells [6] = test: Cytotoxicity in drug-sensitive cells, MTS assay (Example 5); type: cell-based, Human; conditions: doxorubicin in solution
# Method: as §1
# NCI-ADR/RES cells [7] = test: Intracellular distribution of doxorubicin by fluorescence microscopy; type: cell-based; conditions: 2.5 μg/mL doxorubicin, 2 h
# Method: At the end of the treatment period, cells were washed three times with cold PBS and then lysed using 100 μL of cell culture lysis reagent (CCLR; Promega). The protein content of the cell lysates was determined using the Pierce (Rockford, Ill.) BCA protein assay. Cell lysates were then mixed with 300 μL of methanol and incubated at 37° C. for 6 h at 100 rpm. Samples were centrifuged at 14 000 rpm for 10 min at 4° C. The concentration of rhodamine in the methanolic extract was determined by HPLC as described before. Data were expressed as rhodamine accumulation normalized to total cell protein. For fluorescence microscopy, the uptake and intracellular distribution of doxorubicin in NCI-ADR/RES cells were determined qualitatively using fluorescence microscopy. Cells ([…]) were seeded on coverslips placed in 35 mm dishes.
# At 2 h post-treatment, cells were rinsed with drug-free medium and incubated with 75 nM Lysotracker Green (Invitrogen) for 30 min. Cells were then washed and counterstained with DAPI (4′,6-diamidino-2-phenylindole, Invitrogen). Images were captured with a BX60 Olympus fluorescence microscope. Images captured using red, blue, and green filters were overlaid to determine localization and association of doxorubicin-associated red fluorescence in the nucleus and endolysosomes, respectively.
# ROS = test: Nanoparticle-mediated ROS generation ex vitro (APF fluorescence); conditions: photo-activated
# Text: PBS and empty nanoparticles were used as negative controls. To determine the effect of dose of light on the amount of ROS generated, above samples were photo-activated with 10 consecutive doses of light (1200 mJ/cm^2 per dose) measuring fluorescence after each illumination. […] Experiments performed as above but without light irradiation were used as light negative controls.
# MCF-7 cells [8] = test: Cytotoxicity of methylene blue PDT; conditions: 0.3 or 0.6 μM, no light
smiles,measurement,setting,value
"CCCCC(CC)COC(=O)CC(C(=O)OCC(CC)CCCC)S(=O)(=O)[O-].[Na+] (stereo not drawn) [AOT, dioctylsodium sulfosuccinate]",pKa,[1]; sulfonic group,< 1
same,Elimination and accumulation in the body,[2],"easily removed from the body through renal elimination, and does not accumulate"
Clc1cccc(Cl)c1N=C1NCCN1 [Clonidine],Stability under the release conditions,[3],stable
"O=C(O)Cc1ccccc1Nc1c(Cl)cccc1Cl [Diclofenac, diclofenac sodium]",Stability under the release conditions,[3],stable
COc1cccc2c1C(=O)c1c(O)c3c(c(O)c1C2=O)C[C@@](O)(C(=O)CO)C[C@@H]3O[C@H]1C[C@H](N)[C@H](O)[C@H](C)O1 [Doxorubicin],Stability under the release conditions,[3],"biphasic, first-order degradation profile"
same,Therapeutic effect on tumor growth,[4],did not show a significant therapeutic effect
same,Concentration required to induce cytotoxicity,"NCI-ADR/RES cells [5]; doxorubicin in solution, drug-resistant cells",> 50 µg/mL
same,Cytotoxicity in drug-sensitive cells,MCF-7 cells [6],dose-dependent cytotoxicity
same,Doxorubicin in nuclei of cells,NCI-ADR/RES cells [7],No or insignificant doxorubicin fluorescence
same,Intracellular distribution of doxorubicin,NCI-ADR/RES cells [7]; listed as Free doxorubicin,"diffuse distribution within the cells, with a significant fraction appearing in vesicles located near the cell membrane; also recorded: present near the cell surface"
same,pKa,[1],~8.2
same,Ionized fraction,[1]; pH 7.4,about 86%
COc1ccc(CCN(C)CCCC(C#N)(c2ccc(OC)c(OC)c2)C(C)C)cc1OC (stereo not drawn) [Verapamil],Effect on resistance to doxorubicin,NCI-ADR/RES cells [5]; verapamil 23.0 μg/mL with doxorubicin 0.4 μg/mL in solution,reversed the resistance to doxorubicin
"CN(C)c1ccc2nc3ccc(=[N+](C)C)cc-3sc2c1 [methylene blue, Methylene blue]",Increase in fluorescence at 0.6 μM compared to 0.3 μM,ROS,2 fold
same,Cytotoxic effect without light-activation,MCF-7 cells [8],no significant effect

# Source: patent US20110020457A1, “POLYMER-SURFACTANT NANOPARTICLES FOR SUSTAINED RELEASE OF COMPOUNDS” (Wayne State University, priority 2006, published 2011)
